From ChEMBL document CHEMBL1131044, “Discovery and preclinical pharmacology of a novel, potent, nonsteroidal estrogen receptor agonist/antagonist, CP-336156, a diaryltetrahydronaphthalene” (J Med Chem, 1998)

What was measured:
Estrogen receptor = Estrogen receptor (Rattus norvegicus, UniProt P06211+Q62986)
in vivo = conditions: rat, po
[1] = Oral bioavailability in cynomolgus monkey.; assay type: ADME, organism-based, Macaca fascicularis; conditions: in vivo
Rattus norvegicus [2] = organism: Rattus norvegicus
Description: In vivo prevention of bone loss in ovariectomised rats on oral administration

Rattus norvegicus [3] = organism: Rattus norvegicus; remark: listed apart in the source
Description: In vivo prevention of reduced serum cholesterol in ovariectomised rats on oral administration

[4] = Oral bioavailability in rat; assay type: ADME, organism-based; conditions: in vivo

Structure (SMILES)	IC50 (Estrogen receptor) [nM]	ED50 (Rattus norvegicus [2]) [µg/day/kg]	ED50 (Rattus norvegicus [3]) [µg/day/kg]	bioavailability [4] [%]	other results
COc1ccc2c(c1)CCC(c1ccccc1)C2c1ccc(OCCN2CCCC2)cc1 (centres undefined)	132	–	–	–	–
Oc1ccc2c(c1)CCC(c1ccccc1)=C2c1ccc(OCCN2CCCC2)cc1	47.1	–	–	–	–
O=C(c1ccc(OCCN2CCCCC2)cc1)c1c(-c2ccc(O)cc2)sc2cc(O)ccc12 [RALOXIFENE]	–	500	500	–	bioavailability (in vivo): 10%; bioavailability ([1]; read-out: Bioavailabiility): 5%
Oc1ccc2c(c1)OC(c1ccc(OCCN3CCCC3)cc1)C(c1ccccc1)=C2 (centres undefined)	11.1	175	175	27	–
COc1ccc2c(c1)CCC(c1ccccc1)=C2c1ccc(OCCN2CCCC2)cc1 [NAFOXIDINE]	40.9	–	–	–	–
Oc1ccc2c(c1)CC[C@H](c1ccccc1)[C@H]2c1ccc(OCCN2CCCC2)cc1	9.75	–	–	16	–
Oc1ccc2c(c1)CC[C@@H](c1ccccc1)[C@H]2c1ccc(OCCN2CCCC2)cc1	270	>500	>500	29	–
Oc1ccc2c(c1)CC[C@H](c1ccccc1)[C@@H]2c1ccc(OCCN2CCCC2)cc1 (stereo in doubt; 14) [LASOFOXIFENE]	11.3	<1	10	–	F [4]: 62%; bioavailability [1]: 45%
Oc1ccc2c(c1)CC[C@H](c1ccccc1)[C@@H]2c1ccc(OCCN2CCCC2)cc1 (stereo in doubt; 9) [LASOFOXIFENE]	11.1	–	–	60	–
